Test results taken from patent US10881668B2, “Acetamide thienotriazolodiazepines and uses thereof” (Dana-Farber Cancer Institute, Inc., priority 2015, dated 2021).
Like-named read-outs stand apart in the source and are kept apart here.

Assays:
BRDT(1) = BRDT(1) (Homo sapiens (Human), UniProt Q58F21); assay: AlphaScreen acetyl-histone binding assay, BRDT(1); settings: H4K5acK8acK12acK16ac peptide
Procedure: (§1) The IC50 values of the compounds were determined by ALPHASCREENING assays for BRD4 and BRDT protein. NMC797 cell line is a BRD4 dependant NUT midline carcinoma line.
(§2) Acetyl-Histone Binding Assay.
(§3) Assays were performed as described previously with minor modifications from the manufacturer's protocol (PerkinElmer, USA). All reagents were diluted in 50 mM HEPES, 100 mM NaCl, 0.1% BSA, pH 7.4 supplemented with 0.05% CHAPS and allowed to equilibrate to room temperature prior to addition to plates. A 24-point 1:2 serial dilution of the ligands was prepared over the range of 150-0 μM and 4 μl transferred to low-volume 384-well plates (PROXIPLATE™-384 Plus, PerkinElmer, USA), followed by 4 μl of HIS-tagged protein (BRD4/1, 250 nM, BRD4/2 and CREBBP, 2000 nM). […] Plates were sealed and incubated for a further 30 minutes, before the addition of 4 μl of streptavidin-coated donor beads (25 μg/ml) and 4 μl nickel chelate acceptor beads (25 μg/ml) under low light conditions. Plates were foil-sealed to protect from light, incubated at room temperature for 60 minutes and read on a PHERASTAR FS plate reader (BMG Labtech, Germany) using an ALPHASCREEN 680 excitation/570 emission filter set. IC50 values were calculated in Prism 5 ([…] Software, USA) after normalization against corresponding DMSO controls and are given as the final concentration of compound in the 20 μl reaction volume.

[1] = system: NMC797 cell line (BRD4 dependant NUT midline carcinoma line); assay: Cell proliferation assay (ATP content), NMC797; assay type: cell-based; settings: 48-hour incubation
Procedure: as §1
Cell Proliferation Assay.
Cells were seeded into white, 384-well microtiter plates (Nunc) at 500 cells per well in a total volume of 50 μL media. The 797, TT, and TE10 cells were grown in DMEM containing 1% penicillin/streptomycin and 10% FBS. The Per403 cells were grown in DMEM containing 1% penicillin/streptomycin and 20% FBS. Compounds were delivered to microtiter assay plates by robotic pin transfer (PerkinElmer JANUS equipped with a V&P Scientific 100 nL pin tool). Following a 48-hour incubation at 37° C., cells were lysed and wells were assessed for total ATP content using a commercial proliferation assay (Cell TITERGLO; Promega). Replicate measurements were analyzed with respect to dose and estimates of IC50 were calculated by logistic regression ([…] PRISM).

[2] = Pharmacokinetics in male CD1 mice, IV administration; settings: whole blood; for AUC(0-inf) / AUC(0-t) / MRT inf / Vd / clearance / half-life: male, CD1, mouse, iv, 5 mg/kg
Procedure: (§4) Pharmacokinetic parameters were determined by administration of a candidate bromodomain inhibitor to male CD1 mice. Intravenous doses were delivered at 5 mg/kg, and oral doses at 10 mg/kg (N=3). […] The compound concentration in mouse blood was monitored over 24-hour time period to check the compound concentration in blood at 5 min, 30 min, 1 hour, 2 hours, 6 hours, 12 hours, and 24 hour via a series bleeding.

[3] = Pharmacokinetics in male CD1 mice, oral administration; settings: for F: oral 10 mg/kg (IV 5 mg/kg)
Procedure: as §4

BRD4(1) = BRD4(1) (Homo sapiens (Human), UniProt O60885); assay: AlphaScreen acetyl-histone binding assay, BRD4(1); settings: H4K5acK8acK12acK16ac peptide
Procedure: as §1, §2, §3

[4] = male, CD1, mouse, in vivo
Procedure: as §4

in vivo = settings: male, CD1, mouse, iv, 1 mg/kg
Procedure: as §4

[5] = male, CD1, mouse, whole blood, po, 10 mg/kg
[6] = male CD1 mice, oral 10 mg/kg, whole blood, N=3

## Cc1sc2c(c1C)C(c1ccc(Cl)cc1)=N[C@@H](CC(=O)NC[C@H](C)O)c1nnc(C)n1-2 [Compound 501]
BRDT(1)
  IC50: 82 nM
[1]; NMC-797, NMC797 cells
  IC50: 30 nM
[2]
  AUC(0-inf): 2390 ng·h/mL
  AUC(0-t): 2380 ng·h/mL
  MRT inf: 0.718 h
  Vd: 1.54 L/kg
  clearance: 36.7 mL/min/kg
  half-life: 1.51 h
[3]; male CD1 mice, N=3
  F: 53.7%
[3]; [5]
  AUC(0-inf): 2570 ng·h/mL
  AUC(0-t): 2520 ng·h/mL
  Cmax: 1260 ng/mL
  Tmax: 0.417 h
  half-life: 1.54 h

## Cc1sc2c(c1C)C(c1ccc(Cl)cc1)=N[C@@H](CC(=O)NC[C@@H](C)O)c1nnc(C)n1-2 [Compound 502]
BRDT(1)
  IC50: 61 nM
[1]; NMC-797, NMC797 cells
  IC50: 29 nM
[2]
  AUC(0-inf): 2960 ng·h/mL
  AUC(0-t): 2940 ng·h/mL
  MRT inf: 0.882 h
  Vd: 1.48 L/kg
  clearance: 29.5 mL/min/kg
  half-life: 1.06 h
[3]; male CD1 mice, N=3
  F: 53.4%
[3]; [5]
  AUC(0-inf): 3160 ng·h/mL
  AUC(0-t): 3100 ng·h/mL
  Cmax: 1430 ng/mL
  Tmax: 0.5 h
  half-life: 1.37 h

## Cc1sc2c(c1C)C(c1ccc(Cl)cc1)=N[C@@H](CC(=O)NCC(C)(C)O)c1nnc(C)n1-2 [Compound 503]
BRDT(1)
  IC50: 89 nM
BRD4(1)
  IC50: 44 nM
[1]; NMC-797, NMC797 cells
  IC50: 42 nM

## Cc1sc2c(c1C)C(c1ccc(Cl)cc1)=N[C@@H](CC(=O)NCC(F)F)c1nnc(C)n1-2 [Compound 504]
BRDT(1)
  IC50: 69 nM
[1]; NMC-797, NMC797 cells
  IC50: 54 nM

## Cc1sc2c(c1C)C(c1ccc(Cl)cc1)=N[C@@H](CC(=O)NCCC(F)F)c1nnc(C)n1-2 [Compound 505]
BRDT(1)
  IC50: 75 nM
[1]; NMC-797, NMC797 cells
  IC50: 93 nM

## Cc1sc2c(c1C)C(c1ccc(Cl)cc1)=N[C@@H](CC(=O)NCC1CCN(CCN(C)C)CC1)c1nnc(C)n1-2 [Compound 601]
[4]
  F: 4%
In vivo
  half-life: 11.7 h

## Cc1sc2c(c1C)C(c1ccc(Cl)cc1)=N[C@@H](CC(=O)NCCCN1CCC(N3CCCCC3)CC1)c1nnc(C)n1-2 [Compound 602]
[4]
  F: 2%
In vivo
  half-life: 21 h

## Cc1sc2c(c1C)C(c1ccc(Cl)cc1)=N[C@@H](CC(=O)N1CCC(N3CCCCC3)CC1)c1nnc(C)n1-2 [Compound 603]
[4]
  F: 20%
In vivo
  half-life: 1 h

## Cc1sc2c(c1C)C(c1ccc(Cl)cc1)=N[C@@H](CC(=O)NCCCN1CCCC1)c1nnc(C)n1-2 [Compound 604]
[4]
  F: 7%
In vivo
  half-life: 2 h

## Cc1sc2c(c1C)C(c1ccc(Cl)cc1)=N[C@@H](CC(=O)N1CCn3c(nnc3C(F)(F)F)C1)c1nnc(C)n1-2 [Compound 605]
[4]
  F: 6%
In vivo
  half-life: 0.5 h

## Cc1sc2c(c1C)C(c1ccc(Cl)cc1)=N[C@@H](CC(=O)OC(C)(C)C)c1nnc(C)n1-2 [JQ1, reference compound]
[1]; NMC797 cells
  IC50: 21 nM
[2]; male CD1 mice, IV 5 mg/kg, N=3
  AUCINF: 2130 ng·h/mL
  AUClast: 2130 ng·h/mL
  CL: 39.2 mL/min/kg
  MRTINF: 0.861 h
[3]; [6]
  AUCINF: 2090 ng·h/mL
  AUClast: 2040 ng·h/mL
  Cmax: 1180 ng/mL
  Tmax: 0.250 h
